Target: T1, CDK4/cyclin D3 (Homo sapiens, UniProt P11802)
T1 construct: made in house; host or cells: insect cells (baculovirus co-infection)
Experiment: Inhibition of CDK4/Cyclin D retinoblastoma kinase activity
Assay type: biochemical
Settings: for inhibition at 0.1 µM: test compound at 0.1 μM, read-out: % Inhib CDK4/D @ 0.1 μM; for inhibition at 1 µM: test compound at 1 μM (head line shifted: 'mM' printed beside 'Structure'), read-out: % Inhib CDK4/D @ 1 μM; for inhibition at 0.03 µM: test compound at 0.03 (unit cell empty, head line shifted; μM), read-out: % Inhib CDK4/D @ 0.03
Procedure: Cyclin-dependent kinase activity was measured by quantifying the enzyme-catalyzed, time-dependent incorporation of radioactive phosphate from [^32P]ATP or [^33P]ATP into a protein substrate. Unless noted otherwise, assays were performed in 96-well plates in a total volume of 50 μL, in the presence of 10 mM HEPES (N-[2-hydroxyethyl]piperazine-N′-[2-ethanesulfonic acid]) (pH 7.4), 10 mM MgCl2, 25 μM adenosine triphosphate (ATP), 1 mg/mL ovalbumin, 5 μg/mL leupeptin, 1 mM dithiothreitol, 10 mM β-glycerophosphate, 0.1 mM sodium vanadate, 1 mM sodium fluoride, 2.5 mM ethylene glycol-bis(β-aminoethyl ether)-N,N,N′N′-tetraacetic acid (EGTA), 2% (v/v) dimethylsulfoxide, and 0.03-0.4 μCi [^32/33P]ATP per reaction. Reactions were initiated with enzyme, incubated at 30° C., and terminated after 20 minutes by the addition of ethylenediaminetetraacetic acid (EDTA) to 250 mM. The phosphorylated substrate was then captured on a nitrocellulose or phosphocellulose membrane using a 96-well filtration manifold, and unincorporated radioactivity was removed by repeated washing with 0.85% phosphoric acid. Radioactivity was quantified by exposing the dried membranes to a phosphorimager.
Inhibition was measured relative to control wells that contained all reaction components including 2% (v/v) DMSO but no compound, after subtraction of background radioactivity measured in the absence of enzyme. Apparent Ki values of discrete compounds were measured by assaying enzyme activity in the presence of different inhibitor compound concentrations and subtracting the background radioactivity measured in the absence of enzyme. The kinetic parameters (kcat, Km for ATP) were measured for each enzyme under the usual assay conditions by determining the dependence of initial rates on ATP concentration. Inhibition data were fit to an equation for competitive inhibition using Kaleidagraph (Synergy Software), or were fit to an equation for competitive tight-binding inhibition using the software KineTic (BioKin, Ltd.).
A complex of human CDK4 and genetically truncated (1-264) cyclin D3 was purified using traditional biochemical chromatographic techniques from insect cells that had been co-infected with the corresponding baculovirus expression vectors (see e.g., Meijer and Kim, “Chemical Inhibitors of Cyclin-Dependent Kinases,” Methods in Enzymol., 283, 113-128 (1997)). The enzyme complex (5 nM) was assayed with 0.3-0.5 μg of purified recombinant retinoblastoma protein fragment (Rb) as a substrate. The engineered Rb fragment (residues 386-928 of the native retinoblastoma protein; 62.3 kDa) contains the majority of the phosphorylation sites found in the native 106-kDa protein, as well as a tag of six histidine residues for ease of purification. Phosphorylated Rb substrate was captured by microfiltration on a nitrocellulose membrane and quantified using a phosphorimager as described above. For measurement of tight-binding inhibitors, the assay duration was extended to 60 minutes, during which the time-dependence of product formation was linear and initial rate conditions were met.

T1 sequence (P11802 whole entry): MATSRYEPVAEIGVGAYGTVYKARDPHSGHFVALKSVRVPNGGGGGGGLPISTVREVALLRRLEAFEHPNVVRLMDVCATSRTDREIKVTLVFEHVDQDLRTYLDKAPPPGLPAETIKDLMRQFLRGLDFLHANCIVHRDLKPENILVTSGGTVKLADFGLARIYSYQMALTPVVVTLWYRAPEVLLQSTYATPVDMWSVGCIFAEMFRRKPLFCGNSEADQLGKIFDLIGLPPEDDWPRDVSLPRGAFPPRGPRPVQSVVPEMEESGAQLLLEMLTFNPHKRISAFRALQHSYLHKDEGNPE
T1 sequence (P30281 1-264 partner limits assumed): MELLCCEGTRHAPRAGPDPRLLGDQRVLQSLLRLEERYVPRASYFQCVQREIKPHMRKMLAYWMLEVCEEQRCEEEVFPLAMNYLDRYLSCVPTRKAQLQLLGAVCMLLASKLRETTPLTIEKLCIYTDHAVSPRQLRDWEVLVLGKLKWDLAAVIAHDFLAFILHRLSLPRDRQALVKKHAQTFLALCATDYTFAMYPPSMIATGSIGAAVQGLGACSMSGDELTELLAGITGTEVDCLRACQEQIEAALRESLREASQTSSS

| SMILES | inhibition at 0.1 µM | inhibition at 1 µM | inhibition at 0.03 µM |
| --- | --- | --- | --- |
| Nc1nc(Nc2ccc([S+]([O-])CCN3CCCC3)cc2)sc1C(=O)c1c(Cl)cccc1Cl (stereo not drawn) [DD(87)] | 29% | 68.2% | -16% |
| Nc1nc(Nc2ccc([S+]([O-])Cc3ncon3)cc2)sc1C(=O)c1c(Cl)cccc1Cl (stereo not drawn) [DD(88)] | 56% | 81.5% | 4.1% |
| Nc1nc(Nc2ccc([S+]([O-])CC3CNC(=O)O3)cc2)sc1C(=O)c1c(Cl)cccc1Cl (stereo not drawn) [DD(89)] | 35% | 61.7% | -29% |
| CN(C)CCC[S+]([O-])c1ccc(Nc2nc(N)c(C(=O)c3c(Cl)cccc3Cl)s2)cc1 (stereo not drawn) [DD(90)] | 44% | 70.2% | -4.9% |
| Nc1nc(Nc2ccc([S+]([O-])CCN3CCCCC3)cc2)sc1C(=O)c1c(Cl)cccc1Cl (stereo not drawn) [DD(91)] | 24% | 68.2% | -6.3% |
| Nc1nc(Nc2ccc([S+]([O-])CC3CO3)cc2)sc1C(=O)c1c(Cl)cccc1Cl (stereo not drawn) [DD(92)] | 26% | 65.8% | -4.6% |
| CC(C)CC[S+]([O-])c1ccc(Nc2nc(N)c(C(=O)c3c(Cl)cccc3Cl)s2)cc1 (stereo not drawn) [DD(93)] | 35% | 43% | -4.4% |
| COCC[S+]([O-])c1ccc(Nc2nc(N)c(C(=O)c3c(Cl)cccc3Cl)s2)cc1 (stereo not drawn) [DD(94)] | 51% | 70.9% | 17% |
| Nc1nc(Nc2ccc([S+]([O-])CC(=O)Nc3ccccc3)cc2)sc1C(=O)c1c(Cl)cccc1Cl (stereo not drawn) [DD(95)] | 55% | 80.7% | 5.3% |
| Nc1nc(Nc2ccc([S+]([O-])CC3CC3)cc2)sc1C(=O)c1c(Cl)cccc1Cl (stereo not drawn) [DD(96)] | 28% | 55.4% | -8.1% |
| COc1cccc(C[S+]([O-])c2ccc(Nc3nc(N)c(C(=O)c4c(Cl)cccc4Cl)s3)cc2)c1 (stereo not drawn) [DD(97)] | 36% | 66.8% | -3.5% |
| Nc1nc(Nc2ccc([S+]([O-])CC3CCCO3)cc2)sc1C(=O)c1c(Cl)cccc1Cl (stereo not drawn) [DD(98)] | 21% | 45.4% | -12% |
| CN1CCCC1CC[S+]([O-])c1ccc(Nc2nc(N)c(C(=O)c3c(Cl)cccc3Cl)s2)cc1 (stereo not drawn) [DD(99)] | 34% | 77.1% | -5.6% |
| CC1(C[S+]([O-])c2ccc(Nc3nc(N)c(C(=O)c4c(Cl)cccc4Cl)s3)cc2)CO1 (stereo not drawn) [DD(100)] | 33% | 63.7% | 7.1% |
| NC(=O)C[S+]([O-])c1ccc(Nc2nc(N)c(C(=O)c3c(Cl)cccc3Cl)s2)cc1 (stereo not drawn) [DD(101)] | 78% | 80.4% | 38% |
| CCOC(=O)CC[S+]([O-])c1ccc(Nc2nc(N)c(C(=O)c3c(Cl)cccc3Cl)s2)cc1 (stereo not drawn) [DD(102)] | 42% | 46.2% | 2.1% |
| CC(C)OC(=O)C[S+]([O-])c1ccc(Nc2nc(N)c(C(=O)c3c(Cl)cccc3Cl)s2)cc1 (stereo not drawn) [DD(103)] | 38% | 47.5% | -2.9% |
| CC(C)=CC[S+]([O-])c1ccc(Nc2nc(N)c(C(=O)c3c(Cl)cccc3Cl)s2)cc1 (stereo not drawn) [DD(104)] | 14% | 36.4% | -38% |
| CCC[S+]([O-])c1ccc(Nc2nc(N)c(C(=O)c3c(Cl)cccc3Cl)s2)cc1 (stereo not drawn) [DD(105)] | 39% | 61.9% | 0.9% |
| COC(=O)C[S+]([O-])c1ccc(Nc2nc(N)c(C(=O)c3c(Cl)cccc3Cl)s2)cc1 (stereo not drawn) [DD(106)] | 45% | 66.8% | 1.7% |
